From article PMC4506958 (FEBS Open Bio, 2015)

Assays:
[1] = biological target: T1, Keap1 (Kelch-like ECH-associated protein 1) (Homo sapiens, UniProt Q14145); assay: X-ray crystal structures at […] Å (soaking form 3vnh, cocrystallization form 3vng); SPR; AlphaScreen competition with Nrf2 peptide; assay type: binding
T1 construct: Kelch domain (residues 321–609)

[2] = biological target: Nrf2 ETGE motif (Homo sapiens) (UniProt Q16236); assay: ITC; conditions: cited from earlier work

T1 sequence (Q14145 321-609): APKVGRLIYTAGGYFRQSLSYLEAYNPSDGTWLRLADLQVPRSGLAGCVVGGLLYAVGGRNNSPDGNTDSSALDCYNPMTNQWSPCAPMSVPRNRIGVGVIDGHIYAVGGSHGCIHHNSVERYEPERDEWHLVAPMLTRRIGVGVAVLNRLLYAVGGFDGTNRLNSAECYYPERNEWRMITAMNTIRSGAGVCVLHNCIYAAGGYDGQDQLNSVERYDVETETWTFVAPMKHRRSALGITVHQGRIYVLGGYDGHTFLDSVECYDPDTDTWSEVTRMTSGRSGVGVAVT
Keap1 Kelch domain, sequence (Q14145 321-609): as above

Compound: O=C(O)COc1cccc(CNC(=O)Nc2nnc(-c3ccco3)o2)c1 [Ligand1, 2-(3-((3-(5-(furan-2-yl)-1,3,4-oxadiazol-2-yl)ureido)methyl)phenoxy)acetic acid]
- Kd [1]: > 50000 nM

Compound: Keap1 Kelch domain (from UniProt Q14145)
- Kd [2]: 8 nM
